Data published in US20230312550A1, “N-(2-(4-CYANOTHIAZOLIDIN-3-YL)-2-OXOETHYL)-QUINOLINE-4-CARBOXAMIDES” (AstraZeneca AB, priority 2020, published 2023).
Values after ≈ are worked out from the molar mass of the structure shown.

Key:
[1] = molecular target: human dipeptidylpeptidase 7 (hDPP7) (Homo sapiens (Human), UniProt Q9UHL4); test: hDPP7 inhibition assay; format: biochemical; details: hDPP7 15 nM, Ala-Pro-amino-methylcoumarin 5 μM, n = 1
Method: Compounds were tested in a biochemical inhibition assay using human dipeptidylpeptidase 7 (hDPP7) enzyme at 15 nM FAC (BPS Bioscience, #80070) and the substrate Ala-Pro-amino-methylcoumarin (BPS Bioscience, #80305) at 5 μM FAC. The enzymatic reactions were conducted in duplicate at rt for 30 min in 50 μL DPP assay buffer (BPS Bioscience, #80300). Compound solutions (in DMSO) at 10 CR, 3 fold dilution series were prepared in assay buffer ten-fold higher than the final concentration, and 5 μL of the dilution was added to a 50 μL reaction so that the highest compound concentration was 100 μM FAC and the concentration of DMSO was 1% in all wells. The plates were read on a Tecan Infinite M1000 microplate reader with excitation 340 nm and emission 460 nm. Data were analyzed in Graph Pad Prism. IC50 values were determined by plotting % inhibition versus log compound concentration and using a one site dose response model. Raw data signals were normalized using 1% DMSO as 0% control and no enzyme as 100% inhibitor control.

[2] = molecular target: Fibroblast Activation Protein alpha (FAP) (Mus musculus (Mouse), UniProt P97321); test: in vivo
Method: The effect of test compound on FAP enzyme activity in mouse plasma was evaluated in an enzymatic assay using the Fibroblast Activation Protein alpha (FAP) specific fluorogenic substrate dipeptide-Coumarin, Ala-Pro-AMC, (ARI-3144).
Male C57Bl/6 mice (Charles River, Germany), 8 weeks of age, were single housed in a temperature-controlled room with a 12-hour light/dark cycle (06:00-18:00 light). The mice had ad libitum access to water and rodent chow diet (R70, Lactamin, Kimstad, Sweden), and were acclimated for 5 days upon arrival. After acclimation, all mice received a single oral dose of test compound (3 or 10 mg/kg). Blood samples for whole blood compound exposure measurements were taken at 0.25, 0.5, 1, 2, 4, 8 and 24 h post oral dosing. Samples were collected in EDTA capillary tubes (20 μL, K2E, REF 19.447) and were transferred to a 96-deep well plate (NUNC, Thermo Discher Scientific) and stored at −20° C. until further analyses were performed. Blood samples for plasma FAP enzyme activity measurements were taken at 0, 0.25, 0.5, 1, 2, 8 and 24 h post dosing. 25 μL of whole blood was collected in EDTA Microvette® CB 300 (K2E, REF 16.444.100) tubes, and were centrifuged at 4,000×g for 5 min. 10 μL of plasma was then transferred to PCR tubes and stored at −20° C. until further analysis was performed. All blood samples were taken by vena saphena puncture.
Recombinant human FAP (PB-17-1837, construct PL-17-0278, cd33-FAP (27-757)-6His, Mw85926 Da) was used as a standard for this assay. […] The plates were read on a Beckman Paradigm reader with excitation 360 nm and emission 465 nm. Fluorescence measurements were performed with kinetic read every 5 minutes for 60 min at room temperature. Data were analyzed in Excel (IDBS XLfit Add-In) using a Linear Regression (y=k*x+m) model to prepare a human recombinant FAP standard curve.
On the day of the assay, plasma was diluted (1:2) to 20 μL volume in buffer (PBS, 0.1% BSA) and 7.5 μL was transferred to the assay plate (384-well black, fluotrack PS, Greiner 781076). Ala-Pro-AMC (stock solution in 10 mM DMSO) was diluted in buffer (PBS, 0.1% BSA) to 150 μM concentration (180 μL stock solution to 12 mL buffer) and 7.5 μL added to the assay plate followed by a pipetting mix. The plates were read on a Beckman Paradigm reader with excitation 360 nm and emission 465 nm. Fluorescence measurements were performed with kinetic read every 5 minutes for 60 minutes at room temperature. As noted above, FAP cleaves Ala-Pro-AMC to release free AMC which is measured as a fluorescent signal.
The in vivo potency IC50 of each test compound was then estimated by relating the plasma exposure C of the compound to target engagement E in plasma using the following equation:
where E0 is the FAP baseline in plasma prior to dosing and Imax is the maximum effect of the compound. Data from each target engagement experiment were considered separately and therefore slightly different estimates of FAP baseline for each compound were obtained. […] The parameter estimation was done in Phoenix WinNonlin Certara build 8.1.0.3530 with the algorithm ‘Naïve pooled’ as parameter estimation method.

[3] = molecular target: human dipeptidylpeptidase 9 (hDPP9) (Homo sapiens (Human), UniProt Q86TI2); test: hDPP9 inhibition assay; format: biochemical; details: hDPP9 0.4 nM, Ala-Pro-amino-methylcoumarin 5 μM, n = 1
Method: Compounds were tested in a biochemical inhibition assay using human dipeptidylpeptidase 9 (hDPP9) enzyme at 0.4 nM FAC (BPS Bioscience, #80090) and the substrate Ala-Pro-amino-methylcoumarin (BPS Bioscience #80305) at 5 μM FAC. The enzymatic reactions were conducted in duplicate at rt for 30 min in 50 μL DPP assay buffer (BPS Bioscience, #80300). […] The plates were read on a Tecan Infinite M1000 microplate reader with excitation 340 nm and emission 460 nm. Data were analyzed in Graph Pad Prism. IC50 values were determined by plotting % inhibition versus log compound concentration and using a one site dose response model. Raw data signals were normalized using 1% DMSO as 0% control and no enzyme as 100% inhibitor control.

FAP [4] = molecular target: FAP (Mus musculus (Mouse), UniProt P97321); test: FAP plasma inhibition assay, mouse plasma; format: biochemical; details: mouse plasma diluted 1:67, Ala-Pro-AMC 75 μM
Procedure, shortened: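 K2EDTA plasma served as enzyme source, human diluted 1:40 and mouse 1:67, in PBS with 0.1% BSA. Compounds ran as a 10-point 3-fold series from 500 nM final, in duplicate, 40 min at rt in the dark, with fluorescence read against a pre-substrate blank. IC50 came from % inhibition versus log concentration.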

[5] = Metabolic stability in human liver microsomes (HLM); details: human
Method: Metabolic stability in HLM was measured as described in J Comput Aided Mol Des 2015, 29, 795.

[6] = Metabolic stability in rat hepatocytes (rHep); details: n = 1 or geometric mean of n = 2-3
Kinetic solubility = details: kinetic from dmso stock
Method: Kinetic solubility was measured as described in Comput Aided Mol Des 2015, 29, 795.

hFAP (M39-A757) = hFAP (M39-A757) (Homo sapiens (Human), UniProt Q12884); test: hFAP binding assay (surface plasmon resonance); details: SPR, 20° C.; for hFAP Binding assay k(off) / hFAP Binding assay k(on): single cycle kinetics; for Kd: n = 1 or geometric mean n = 2-4
[7] = molecular target: Prolyl endopeptidase, Prolyl Oligopeptidase (hPREP) (Homo sapiens (Human), UniProt P48147); test: hPrep inhibition assay; format: biochemical; details: hPREP 0.6 nM, Z-Gly-Pro-amino-methylcoumarin 50 μM; read-out: PREP IC50
Procedure, shortened: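 Fluorogenic read-out (340 nm excitation, 460 nm emission) after 20 min at rt, using 50 μM final Z-Gly-Pro-aminomethylcoumarin and 0.6 nM final enzyme, following 15 min compound preincubation. Buffer pH 7.5 with glutathione and Triton X-100. IC50 via one-site model on % inhibition vs log concentration.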

[8] = Metabolic stability in human hepatocytes (hHep); format: in vitro ADME; details: n = 1 or geometric mean of n = 2
FAP [9] = molecular target: T1, FAP (Homo sapiens (Human), UniProt Q12884); test: hFAP inhibition assay; format: biochemical; details: hFAP […], Ala-Pro-AMC 20 μM; n = 1 or geometric mean n = 2-3
Procedure, shortened: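 Compounds (10-point, 3-fold dilutions from 50 μM top) were preincubated 15 min at rt in the dark with 0.48 nM hFAP in pH 7.4 Tris/NaCl/Chaps buffer. Reaction was started with substrate (40 μM solution) and ran 30 min at rt. Read by fluorescence (340/460 nm); IC50 from one-site fit.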
Target sequence in this assay (Q12884 38-760): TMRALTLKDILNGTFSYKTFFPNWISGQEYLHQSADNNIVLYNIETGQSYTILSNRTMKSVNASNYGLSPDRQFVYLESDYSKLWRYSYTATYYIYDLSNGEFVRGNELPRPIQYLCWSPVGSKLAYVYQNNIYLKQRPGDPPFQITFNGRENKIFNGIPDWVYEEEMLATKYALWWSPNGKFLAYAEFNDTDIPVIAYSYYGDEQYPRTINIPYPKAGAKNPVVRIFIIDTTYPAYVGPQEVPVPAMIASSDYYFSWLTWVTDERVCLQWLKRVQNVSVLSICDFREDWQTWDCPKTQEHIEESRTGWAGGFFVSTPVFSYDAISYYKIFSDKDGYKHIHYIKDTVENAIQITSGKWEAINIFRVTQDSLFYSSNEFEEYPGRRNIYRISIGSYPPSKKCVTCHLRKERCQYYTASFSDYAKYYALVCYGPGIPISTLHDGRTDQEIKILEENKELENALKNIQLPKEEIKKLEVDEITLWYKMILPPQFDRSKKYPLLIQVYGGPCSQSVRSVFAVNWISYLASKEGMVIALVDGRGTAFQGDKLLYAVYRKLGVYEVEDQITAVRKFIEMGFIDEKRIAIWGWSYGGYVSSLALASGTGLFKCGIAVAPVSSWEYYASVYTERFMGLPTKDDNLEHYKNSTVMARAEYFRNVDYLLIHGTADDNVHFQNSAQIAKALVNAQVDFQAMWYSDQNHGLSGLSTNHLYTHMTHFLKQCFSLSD

[10] = molecular target: human Fibroblast activation protein alpha (hFAP) (Homo sapiens (Human), UniProt Q12884); test: hFAP inhibition assay (tight binders); format: biochemical; details: Ala-Pro-AMC 20 μM, n = 1 or geometric mean n = 2-6; further: hFAP 2.4 pM
Method: The plates were read on a PHERAstar® reader with excitation 340 nm and emission 460 nm. Data were analyzed in Genedata Screener®. IC50 values were determined by plotting % inhibition versus log compound concentration and using a one site dose response model.

Caco-2 cell permeability = details: human
Method: Caco-2 cell permeability was measured as described in Mol Pharm 2017, 14, 1601.

FAP [11] = molecular target: T1, FAP; test: FAP plasma inhibition assay, human plasma; format: biochemical; details: human plasma diluted 1:40, Ala-Pro-AMC 75 μM
Method: This assay was adapted from the method described in Example 237 for detection of FAP target engagement enzyme activity in plasma. Plasma (anticoagulant K2EDTA) was used as the enzyme source: Human plasma (Pooled from AZ Biobank), Mouse plasma (AZ AST Biobank), and Cynomolgus plasma (BioIVT, #NHP00PLK2FNN, lot CYN222895). 384-Well black fluotrack PS plates (Greiner 781076) were used. 20 μL diluted plasma (Cynomolgus and Human plasma dilution 1:40, Mouse plasma dilution 1:67) in buffer (PBS, 0.1% BSA) was added to 0.6 μL compounds (in DMSO). Compounds were tested using 10 CR, 3 fold dilution series from 500 nM FAC. Two replicates for each assay point were run on the same plate. A fluorescence blank read was taken before substrate addition. […] Plates were incubated for 40 min at rt in the dark. […] IC50 values were determined by plotting % inhibition versus log compound concentration.
Target sequence in this assay (Q12884 24-760): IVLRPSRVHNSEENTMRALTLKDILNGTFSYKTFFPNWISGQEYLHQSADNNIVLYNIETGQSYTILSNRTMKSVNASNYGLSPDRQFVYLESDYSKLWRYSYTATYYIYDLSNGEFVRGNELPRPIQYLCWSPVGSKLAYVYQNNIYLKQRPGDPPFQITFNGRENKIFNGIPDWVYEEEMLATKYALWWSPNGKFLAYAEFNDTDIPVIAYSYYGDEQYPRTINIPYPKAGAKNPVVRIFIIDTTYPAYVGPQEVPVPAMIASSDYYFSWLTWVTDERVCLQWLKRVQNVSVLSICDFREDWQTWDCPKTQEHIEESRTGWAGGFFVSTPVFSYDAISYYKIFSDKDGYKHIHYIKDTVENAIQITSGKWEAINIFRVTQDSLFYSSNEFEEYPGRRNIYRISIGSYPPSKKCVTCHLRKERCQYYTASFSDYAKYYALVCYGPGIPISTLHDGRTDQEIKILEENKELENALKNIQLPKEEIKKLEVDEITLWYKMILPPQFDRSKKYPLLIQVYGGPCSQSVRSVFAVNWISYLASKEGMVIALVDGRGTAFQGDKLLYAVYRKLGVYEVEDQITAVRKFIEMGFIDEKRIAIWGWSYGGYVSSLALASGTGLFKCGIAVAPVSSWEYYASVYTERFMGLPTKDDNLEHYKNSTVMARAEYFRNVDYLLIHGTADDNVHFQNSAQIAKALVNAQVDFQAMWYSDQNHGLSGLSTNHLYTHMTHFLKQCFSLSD

[12] = HLM CLint, n = 1 or average of n = 2-3
[13] = Solubility, kinetic solubility, n = 1 or average of n = 2-3

Sequence of Prolyl endopeptidase, Prolyl Oligopeptidase (hPREP) (P48147 whole entry): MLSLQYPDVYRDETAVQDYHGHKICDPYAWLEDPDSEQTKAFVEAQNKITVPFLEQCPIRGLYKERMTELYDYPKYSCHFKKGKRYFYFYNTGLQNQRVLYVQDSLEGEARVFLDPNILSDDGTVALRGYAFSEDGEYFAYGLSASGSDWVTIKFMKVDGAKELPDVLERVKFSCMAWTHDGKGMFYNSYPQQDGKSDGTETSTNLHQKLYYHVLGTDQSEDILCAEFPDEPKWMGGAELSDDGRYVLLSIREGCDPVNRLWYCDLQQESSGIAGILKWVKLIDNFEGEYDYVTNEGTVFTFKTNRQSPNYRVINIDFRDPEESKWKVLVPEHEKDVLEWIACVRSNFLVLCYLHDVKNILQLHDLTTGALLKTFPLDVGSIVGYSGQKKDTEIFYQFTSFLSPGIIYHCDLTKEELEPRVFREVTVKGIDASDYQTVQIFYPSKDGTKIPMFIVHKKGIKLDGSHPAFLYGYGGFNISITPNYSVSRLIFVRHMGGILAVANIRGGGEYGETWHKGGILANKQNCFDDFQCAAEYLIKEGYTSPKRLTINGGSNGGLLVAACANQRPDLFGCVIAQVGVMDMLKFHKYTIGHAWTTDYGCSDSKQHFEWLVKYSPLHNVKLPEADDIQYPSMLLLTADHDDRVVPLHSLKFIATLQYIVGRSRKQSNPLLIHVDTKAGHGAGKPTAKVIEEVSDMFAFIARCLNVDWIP
Sequence of hFAP (M39-A757) (Q12884 39-757): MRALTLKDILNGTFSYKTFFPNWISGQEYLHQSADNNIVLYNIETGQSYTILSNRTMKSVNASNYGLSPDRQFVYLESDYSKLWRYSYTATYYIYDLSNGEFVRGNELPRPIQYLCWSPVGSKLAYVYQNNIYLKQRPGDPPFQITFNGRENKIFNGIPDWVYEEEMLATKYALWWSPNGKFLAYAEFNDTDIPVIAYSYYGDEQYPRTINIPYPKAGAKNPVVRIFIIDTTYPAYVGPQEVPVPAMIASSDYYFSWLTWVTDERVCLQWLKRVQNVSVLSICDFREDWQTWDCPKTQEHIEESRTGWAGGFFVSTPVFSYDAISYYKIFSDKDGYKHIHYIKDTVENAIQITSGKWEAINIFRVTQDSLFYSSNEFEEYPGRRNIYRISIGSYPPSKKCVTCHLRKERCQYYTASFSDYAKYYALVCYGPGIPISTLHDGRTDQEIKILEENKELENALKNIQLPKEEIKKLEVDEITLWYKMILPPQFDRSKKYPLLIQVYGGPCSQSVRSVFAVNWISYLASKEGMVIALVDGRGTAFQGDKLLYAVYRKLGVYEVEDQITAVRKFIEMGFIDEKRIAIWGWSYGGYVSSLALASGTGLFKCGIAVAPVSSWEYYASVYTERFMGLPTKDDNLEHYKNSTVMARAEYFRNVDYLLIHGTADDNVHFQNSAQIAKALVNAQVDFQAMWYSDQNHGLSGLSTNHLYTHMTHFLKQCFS
Sequence of FAP (Mus musculus (Mouse), UniProt P97321) (P97321 24-761): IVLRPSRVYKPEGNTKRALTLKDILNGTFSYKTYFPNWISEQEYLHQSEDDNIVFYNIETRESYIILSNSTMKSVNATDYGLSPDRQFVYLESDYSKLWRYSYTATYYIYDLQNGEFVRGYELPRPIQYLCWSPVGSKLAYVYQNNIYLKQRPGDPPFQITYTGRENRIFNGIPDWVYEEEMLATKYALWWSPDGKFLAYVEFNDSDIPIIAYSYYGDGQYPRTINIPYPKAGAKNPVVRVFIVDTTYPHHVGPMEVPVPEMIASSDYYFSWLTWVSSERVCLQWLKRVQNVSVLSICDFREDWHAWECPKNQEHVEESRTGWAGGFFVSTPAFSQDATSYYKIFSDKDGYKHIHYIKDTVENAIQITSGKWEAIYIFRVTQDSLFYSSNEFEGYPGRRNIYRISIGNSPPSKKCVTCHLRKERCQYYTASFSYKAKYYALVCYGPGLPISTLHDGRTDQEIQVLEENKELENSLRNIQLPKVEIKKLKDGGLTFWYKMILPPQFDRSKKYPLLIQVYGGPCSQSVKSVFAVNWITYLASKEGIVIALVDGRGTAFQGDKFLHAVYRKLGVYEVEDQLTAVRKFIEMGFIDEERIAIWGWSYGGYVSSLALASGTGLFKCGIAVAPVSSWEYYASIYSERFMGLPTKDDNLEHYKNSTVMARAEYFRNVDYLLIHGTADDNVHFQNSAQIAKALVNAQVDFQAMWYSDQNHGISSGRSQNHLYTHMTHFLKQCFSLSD
Sequence of Fibroblast Activation Protein alpha (FAP) (P97321 24-761): as above
Sequence of human dipeptidylpeptidase 9 (hDPP9) (Q86TI2 whole entry): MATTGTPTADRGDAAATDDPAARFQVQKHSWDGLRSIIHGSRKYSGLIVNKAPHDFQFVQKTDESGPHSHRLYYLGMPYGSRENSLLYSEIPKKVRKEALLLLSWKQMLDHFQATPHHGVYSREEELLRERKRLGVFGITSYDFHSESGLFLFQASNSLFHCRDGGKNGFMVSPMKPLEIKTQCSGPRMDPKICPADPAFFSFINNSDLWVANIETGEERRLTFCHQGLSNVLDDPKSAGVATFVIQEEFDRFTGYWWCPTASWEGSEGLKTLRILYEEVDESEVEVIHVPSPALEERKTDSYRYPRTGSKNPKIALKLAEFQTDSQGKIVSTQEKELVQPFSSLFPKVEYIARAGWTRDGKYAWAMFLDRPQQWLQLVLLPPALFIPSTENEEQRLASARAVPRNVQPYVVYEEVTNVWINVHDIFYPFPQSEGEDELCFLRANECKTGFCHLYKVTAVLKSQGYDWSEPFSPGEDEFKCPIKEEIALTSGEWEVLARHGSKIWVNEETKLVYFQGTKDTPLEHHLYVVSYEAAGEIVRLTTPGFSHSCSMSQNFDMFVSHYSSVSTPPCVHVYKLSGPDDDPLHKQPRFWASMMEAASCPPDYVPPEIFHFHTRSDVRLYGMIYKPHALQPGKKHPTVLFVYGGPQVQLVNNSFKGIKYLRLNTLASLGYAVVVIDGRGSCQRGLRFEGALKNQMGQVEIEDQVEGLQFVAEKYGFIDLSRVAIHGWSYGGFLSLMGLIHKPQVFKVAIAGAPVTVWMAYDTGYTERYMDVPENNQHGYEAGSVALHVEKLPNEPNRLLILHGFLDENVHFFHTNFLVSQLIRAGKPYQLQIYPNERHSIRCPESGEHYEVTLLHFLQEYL
Sequence of human Fibroblast activation protein alpha (hFAP) (Q12884 38-760): as the sequence (Q12884 38-760) above

| IC50 [1] [nM] | IC50 [2] [nM] | IC50 (FAP [4]) [nM] | hFAP Binding assay k(off) (hFAP (M39-A757)) [s⁻¹] | hFAP Binding assay k(on) (hFAP (M39-A757)) [M⁻¹ s⁻¹] | IC50 [7] [nM] | Structure (SMILES) | other results |
| --- | --- | --- | --- | --- | --- | --- | --- |
| > 100000 | 2.1 | – | – | – | – | N#C[C@@H]1CSCN1C(=O)CNC(=O)c1ccnc2ccc(N3CCO[C@@H](CF)C3)cc12 [Example 69, N-(2-((R)-4-Cyanothiazolidin-3-yl)-2-oxoethyl)-6-((R)-2-(fluoromethyl)morpholino)-quinoline-4-carboxamide] | IC50 [3]: 950 nM |
| > 100000 | 3 | 0.2 | – | – | – | N#C[C@@H]1CSCN1C(=O)CNC(=O)c1ccnc2ccc(N3CC4(C3)OCCO4)cc12 [Example 163, (R)—N-(2-(4-Cyanothiazolidin-3-yl)-2-oxoethyl)-6-(5,8-dioxa-2-azaspiro[3.4]octan-2-yl)quinoline-4-carboxamide] | – |
| > 100000 | 1.4 | 0.5 | – | – | – | CC1(CF)CN(c2ccc3nccc(C(=O)NCC(=O)N4CSC[C@H]4C#N)c3c2)C1 [Example 27, (R)—N-(2-(4-Cyanothiazolidin-3-yl)-2-oxoethyl)-6-(3-(fluoromethyl)-3-methylazetidin-1-yl)quinoline-4-carboxamide] | – |
| – | 8.7 | 0.5 | 0.00018 | 10000000 | 260 | N#C[C@@H]1CSCN1C(=O)CNC(=O)c1ccnc2ccc(-c3cnn(C4CC4)c3)cc12 [Example 170, (R)—N-(2-(4-Cyanothiazolidin-3-yl)-2-oxoethyl)-6-(1-cyclopropyl-1H-pyrazol-4-yl)quinoline-4-carboxamide] | – |
| > 100000 | 2.8 | 0.2 | – | – | – | N#C[C@@H]1CSCN1C(=O)CNC(=O)c1ccnc2ccc(N3CCO[C@H](CF)C3)cc12 [Example 71, N-(2-((R)-4-Cyanothiazolidin-3-yl)-2-oxoethyl)-6-((S)-2-(fluoromethyl)morpholino)-quinoline-4-carboxamide] | IC50 [3]: 1900 nM |
| > 100000 | – | 0.2 | – | – | – | COC1CCN(c2ccc3nccc(C(=O)NCC(=O)N4CSC[C@H]4C#N)c3c2)CC1 [Example 8, (R)—N-(2-(4-Cyanothiazolidin-3-yl)-2-oxoethyl)-6-(4-methoxypiperidin-1-yl)quinoline-4-carboxamide] | – |
| > 100000 | 3.3 | 0.4 | – | – | – | COC1(C)CN(c2ccc3nccc(C(=O)NCC(=O)N4CSC[C@H]4C#N)c3c2)C1 [Example 151, (R)—N-(2-(4-Cyanothiazolidin-3-yl)-2-oxoethyl)-6-(3-methoxy-3-methylazetidin-1-yl)quinoline-4-carboxamide] | – |
| – | 1.2 | 0.3 | 0.000046 | 2100000 | 640 | N#C[C@@H]1CSCN1C(=O)CNC(=O)c1ccnc2ccc(N3CCC(F)CC3)cc12 [Example 205, (R)—N-(2-(4-Cyanothiazolidin-3-yl)-2-oxoethyl)-6-(4-fluoropiperidin-1-yl)quinoline-4-carboxamide] | – |
| > 100000 | 2.5 | 0.3 | – | – | – | Cc1nn(C)cc1-c1ccc2nccc(C(=O)NCC(=O)N3CSC[C@H]3C#N)c2c1 [Example 171, (R)—N-(2-(4-Cyanothiazolidin-3-yl)-2-oxoethyl)-6-(1,3-dimethyl-1H-pyrazol-4-yl)quinoline-4-carboxamide] | – |
| – | 2 | 0.5 | 0.000045 | 1500000 | 490 | N#C[C@@H]1CSCN1C(=O)CNC(=O)c1ccnc2ccc(N3CC(CF)C3)cc12 [Example 113, (R)—N-(2-(4-Cyanothiazolidin-3-yl)-2-oxoethyl)-6-(3-(fluoromethyl)azetidin-1-yl)quinoline-4-carboxamide] | hHep CLint [8]: <1.5 μL/min/1E6; IC50 (FAP [9]): 0.25 nM; IC50 [10]: 0.12 nM; microsomal CLint [5, 12]: < 3 µL/min/mg; Papp (Caco-2 cell permeability): 20 ×10⁻⁶ cm/s; Papp A→B (Caco-2 cell permeability): 1.9 ×10⁻⁶ cm/s; Papp B→A (Caco-2 cell permeability): 23 ×10⁻⁶ cm/s; efflux ratio (Caco-2 cell permeability): 12; rHep CLint [6]: 11 μL/min/1E6; Kd (hFAP (M39-A757)): 0.031 nM; solubility (Kinetic solubility; [13]): 71 µM (≈ 29.4 µg/mL); IC50 (FAP [11]): 0.2 nM |
| 33000 | 0.18 | 0.52 | – | – | – | N#C[C@@H]1CSCN1C(=O)CNC(=O)c1ccnc2ccc(N3CCOCC3)cc12 [Example 67, (R)—N-(2-(4-Cyanothiazolidin-3-yl)-2-oxoethyl)-6-morpholinoquinoline-4-carboxamide] | – |
| – | 1.4 | – | 0.00096 | 6200000 | 440 | N#C[C@@H]1CSCN1C(=O)CNC(=O)c1ccnc2ccc(-c3ccc(C(F)F)nc3)cc12 [Example 169, (R)—N-(2-(4-cyanothiazolidin-3-yl)-2-oxoethyl)-6-(6-(difluoromethyl)pyridin-3-yl)quinoline-4-carboxamide] | IC50 (FAP [9]): 0.22 nM; IC50 [10]: 0.057 nM; microsomal CLint [5, 12]: 18 µL/min/mg; rHep CLint [6]: 8.8 μL/min/1E6; Kd (hFAP (M39-A757)): 0.16 nM; solubility (Kinetic solubility; [13]): 26 µM (≈ 11.8 µg/mL) |

| Structure (SMILES) | IC50 [1] [nM] | IC50 [2] [nM] | IC50 (FAP [4]) [nM] | hFAP Binding assay k(off) (hFAP (M39-A757)) [s⁻¹] | hFAP Binding assay k(on) (hFAP (M39-A757)) [M⁻¹ s⁻¹] | IC50 [7] [nM] | other results |
| --- | --- | --- | --- | --- | --- | --- | --- |
| N#C[C@@H]1CSCN1C(=O)CNC(=O)c1ccnc2ccc(N3CCC4(CCCCC4)OC3=O)cc12 [Example 110, (R)—N-(2-(4-cyanothiazolidin-3-yl)-2-oxoethyl)-6-(2-oxo-1-oxa-3-azaspiro[5.5]undecan-3-yl)quinoline-4-carboxamide] | > 100000 | – | – | – | – | – | microsomal CLint [5]: 39 µL/min/mg; rHep CLint [6]: 3.3 μL/min/1E6; solubility (Kinetic solubility): 950 µM (≈ 469 µg/mL) |
